# Results from patent US20240041042A1, “1-(PYRIDYL)-5-AZINYLPYRAZOLE DERIVATIVES, AND THEIR USE FOR CONTROL OF UNDESIRED PLANT GROWTH” (Bayer Aktiengesellschaft, priority 2020, published 2024).
# Read-outs that look alike come from different tables or passages of the source.
# What was measured:
# Format in all cases: in vivo
# [1] = tested on: Avena fatua (AVEFA); experiment: Post-emergence herbicidal action against AVEFA; conditions: visual rating about 3 weeks after treatment
# Method: (§1) Seeds of monocotyledonous and dicotyledonous weeds and crop plants are placed in sandy loam in plastic or organic planting pots, covered with soil and cultivated in a greenhouse under controlled growth conditions. 2 to 3 weeks after sowing, the test plants are treated at the one-leaf stage. The compounds of the invention, formulated in the form of wettable powders (WP) or as emulsion concentrates (EC), are then sprayed onto the green parts of the plants as aqueous suspension or emulsion with addition of 0.5% additive at a water application rate of 600 l/ha (converted). After the test plants have been kept in the greenhouse under optimum growth conditions for about 3 weeks, the activity of the preparations is rated visually in comparison to untreated controls. For example, 100% activity=the plants have died, 0% activity=like control plants.
# (§2) Tables B1 to B13 below show the effects of selected compounds of the general formula (I) according to Table 1 on various harmful plants and at an application rate corresponding to 320 g/ha or lower, which were obtained by the experimental procedure mentioned above. The appendices “a”, “b” and “c” give differentiation by dosage used with otherwise the same harmful plants tested.
# [2] = tested on: Pharbitis purpurea (PHBPU); experiment: Pre-emergence herbicidal action against PHBPU; conditions: dosage 320 g/ha
# From the text: (§3) Seeds of monocotyledonous and dicotyledonous weed plants and crop plants are placed in plastic or organic planting pots and covered with soil. The compounds of the invention, formulated in the form of wettable powders (WP) or as emulsion concentrates (EC), are then applied to the surface of the covering soil as aqueous suspension or emulsion with addition of 0.5% additive at a water application rate equivalent to 600 l/ha. After the treatment, the pots are placed in a greenhouse and kept under good growth conditions for the trial plants. After about 3 weeks, the effect of the preparations is scored visually in comparison with untreated controls as percentages. For example, 100% activity=the plants have died, 0% activity=like control plants.
# (§4) Tables A1 to A13 below show the effects of selected compounds of the general formula (I) on various harmful plants and at an application rate corresponding to 320 g/ha or lower, which were obtained by the experimental procedure mentioned above. The appendices “a”, “b” and “c” give differentiation by dosage used with otherwise the same harmful plants tested.
# [3] = tested on: Setaria viridis (SETVI); experiment: Post-emergence herbicidal action against SETVI; conditions: dosage 320 g/ha
# Method: as §1, §2
# [4] = tested on: Avena fatua (AVEFA); experiment: Pre-emergence herbicidal action against AVEFA; conditions: 320 g/ha, visual scoring after about 3 weeks vs untreated controls
# From the text: as §3, §4
# [5] = tested on: Amaranthus retroflexus (AMARE); experiment: Post-emergence herbicidal action against AMARE
# Method: as §1, §2
# [6] = tested on: Polygonum convolvulus (POLCO); experiment: Pre-emergence herbicidal action against POLCO; conditions: dosage 320 g/ha
# From the text: as §3, §4
# [7] = tested on: Verconica persica (VERPE); experiment: Post-emergence herbicidal action against VERPE; conditions: 320 g/ha, VERPE
# Method: as §1, §2
# [8] = tested on: Verconica persica (VERPE); experiment: Pre-emergence herbicidal action against VERPE; conditions: dosage 320 g/ha
# From the text: as §3, §4
# [9] = tested on: Matricaria inodora (MATIN); experiment: Pre-emergence herbicidal action against MATIN; conditions: dosage 320 g/ha
# From the text: as §3, §4
# [10] = tested on: Amaranthus retroflexus (AMARE); experiment: Pre-emergence herbicidal action against AMARE; conditions: visual scoring after about 3 weeks vs untreated controls
# From the text: as §3, §4
# [11] = tested on: Lolium rigidum (LOLRI); experiment: Pre-emergence herbicidal action against LOLRI
# From the text: as §3, §4
# [12] = tested on: Echinochloa crus-galli (ECHCG); experiment: Post-emergence herbicidal action against ECHCG
# Method: as §1, §2
# [13] = tested on: Viola tricolor (VIOTR); experiment: Pre-emergence herbicidal action against VIOTR
# From the text: as §3, §4
# [14] = tested on: Polygonum convolvulus (POLCO); experiment: Post-emergence herbicidal action against POLCO
# Method: as §1, §2
# [15] = tested on: Alopecurus myosuroides (ALOMY); experiment: Post-emergence herbicidal action against ALOMY; conditions: visual rating about 3 weeks after treatment vs untreated controls (100% = plants have died, 0% = like control plants)
# Method: as §1, §2
# [16] = tested on: Setaria viridis (SETVI); experiment: Pre-emergence herbicidal action against SETVI
# From the text: as §3, §4
# [17] = tested on: Pharbitis purpurea (PHBPU); experiment: Post-emergence herbicidal action against PHBPU
# Method: as §1, §2
# [18] = tested on: Alopecurus myosuroides (ALOMY); experiment: Pre-emergence herbicidal action against ALOMY; conditions: scored visually after about 3 weeks, 100% = plants have died
# From the text: as §3, §4
# [19] = tested on: Oryza sativa (ORYSA); conditions: crop plant compatibility
# Method: as §1
# (§5) The observed effects on selected crop plants are reported here in comparison to the untreated controls (values in %). The appendices “a”, “b” and “c” give differentiation by dosage used with otherwise the same crop plants tested.
# [20] = tested on: Zea mays (ZEAMX); conditions: for Post-emergence action against ZEAMX in %: crop plant compatibility, 80 g/ha, effect vs untreated controls
# Method: as §1, §5
# [21] = tested on: Echinochloa crus-galli (ECHCG); experiment: Pre-emergence herbicidal action against ECHCG; conditions: dosage 320 g/ha
# From the text: as §3, §4
# [22] = tested on: Abutilon theophrasti (ABUTH); experiment: Post-emergence herbicidal action against ABUTH; conditions: 80 g/ha, visual rating about 3 weeks after treatment vs untreated controls (100% = plants have died, 0% = like control plants)
# Method: as §1, §2
# [23] = tested on: Lolium rigidum (LOLRI); experiment: Post-emergence herbicidal action against LOLRI; conditions: dosage 80 g/ha
# Method: as §1, §2
# [24] = 80 g/ha, visual rating about 3 weeks after treatment vs untreated controls (100% = plants have died, 0% = like control plants)
# [25] = 80 g/ha, effect in comparison to untreated controls
"Post-emergence action against ORYSA in % [19, 25]",Post-emergence action against ZEAMX in % [20],SMILES,Post-emergence action against AVEFA in % ([1]; 80 g/ha),Pre-emergence action against PHBPU in % [2],Pre-emergence action against AVEFA in % [4],"Post-emergence action against AMARE in % [5, 24]",Pre-emergence action against POLCO in % [6],Pre-emergence action against VERPE in % [8],Pre-emergence action against AMARE in % ([10]; 80 g/ha),Pre-emergence action against AMARE in % ([10]; 320 g/ha),Pre-emergence action against LOLRI in % ([11]; dosage 320 g/ha),"Pre-emergence action against VIOTR in % ([13]; 320 g/ha, Viola tricolor)",Post-emergence action against POLCO in % ([14]; dosage 80 g/ha),Pre-emergence action against SETVI in % ([16]; dosage 80 g/ha),Pre-emergence action against SETVI in % ([16]; dosage 320 g/ha),Pre-emergence action against ALOMY ([18]; 80 g/ha),Pre-emergence action against ALOMY ([18]; 320 g/ha),other results
20%,20%,C[C@H](NC(=O)COc1nn(-c2ccccn2)c(-c2cncc(F)c2)c1Br)C(=O)O [Example I-80],80%,90%,90%,80%,90%,90%,90%,90%,100%,90%,80%,90%,100%,100%,100%,"Post-emergence action against AVEFA in % ([1]; 320 g/ha): 80%; Post-emergence action against SETVI in % [3]: 80%; Post-emergence action against AMARE in % ([5]; 320 g/ha, visual rating about 3 weeks after treatment): 80%; Post-emergence action against VERPE in % [7]: 80%; Pre-emergence action against MATIN in % [9]: 90%; Post-emergence action against ECHCG in % ([12]; dosage 80 g/ha): 80%; Post-emergence action against ECHCG in % ([12]; dosage 320 g/ha): 80%; Post-emergence action against POLCO in % ([14]; dosage 320 g/ha): 80%; Post-emergence action against ALOMY in % ([15]; 320 g/ha): 90%; Post-emergence action against PHBPU in % ([17]; dosage 80 g/ha): 80%; Post-emergence action against PHBPU in % ([17]; dosage 320 g/ha): 80%; Post-emergence action against ORYSA in % ([19]; 320 g/ha, effect in comparison to untreated controls): 20%; Pre-emergence action against ECHCG in % [21]: 100%"
0%,20%,CCOC(=O)C(C)Oc1nn(-c2ccccn2)c(-c2ccc(F)nc2)c1Br (stereo not drawn) [Example I-102],90%,80%,90%,80%,90%,80%,80%,90%,100%,100%,90%,90%,100%,100%,100%,"Post-emergence action against ABUTH in % [22]: 80%; Pre-emergence action against LOLRI in % ([11]; dosage 80 g/ha): 80%; Pre-emergence action against VIOTR in % ([13]; dosage 80 g/ha): 90%; Post-emergence action against ALOMY in % ([15]; 80 g/ha): 90%; Post-emergence action against LOLRI in % [23]: 90%; Post-emergence action against ORYSA in % ([19]; 20 g/ha, effect vs untreated controls): 0%; Post-emergence action against ZEAMX in % (crop plant compatibility) ([20]; 20 g/ha, ZEAMX, effect in comparison to untreated controls): 0%"
